Reference: PubChem BioAssay (NCI)
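Results reflect a 48-hour exposure of cells in 96-well plates to compound at five concentrations. The concentration for full growth arrest is given as TGI.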

How the values were obtained:
Assay in all cases: inhibition of tumour cell growth, NCI panel, 48 h
[1] = tested on: M14 melanoma
[2] = tested on: HCT-15 colon
[3] = tested on: OVCAR-4 ovarian
[4] = tested on: A498 renal
[5] = tested on: MOLT-4 leukemia
[6] = tested on: HS 578T breast

Structure (SMILES)	TGI [1] [µM]	TGI [2] [µM]	TGI [3] [µM]	TGI [4] [µM]	TGI [5] [µM]	TGI [6] [µM]
C[C@H]1C(OCCOC2O[C@@H]3O[C@@]4(C)CC[C@H]5[C@H](C)CCC([C@H]2C)[C@@]35O4)O[C@@H]2O[C@@]3(C)CC[C@H]4[C@H](C)CCC1[C@@]24O3 (some centres not stated)	> 100	> 100	> 100	> 100	> 100	–
CC1(C)C=[N+]([O-])C(C)(C)N1	> 100	> 100	> 100	–	> 100	> 100
CCCC(=O)N/S(=N/S(=O)(=O)c1ccc(Cl)cc1)C(Cl)(Cl)Cl (configuration not stated)	> 100	> 100	–	> 100	> 100	> 100
CN(C)c1ncnc2c1ncn2C1C=CC(COS(N)(=O)=O)C1 (configuration not stated)	> 100	> 100	> 100	> 100	> 100	> 100
NC(C(F)(F)F)(C(F)(F)F)P(=O)(c1ccccc1)c1ccccc1	> 100	> 100	> 100	–	> 100	> 100
Cn1cc2c(=O)n3ncn(-c4ccc(Br)cc4)c3nc2n1	> 100	> 100	> 100	> 100	> 100	> 100
COc1ccc(C2SC(N)=Nc3c2c(C)nn3C(=O)c2ccc(Cl)cc2)cc1 (configuration not stated)	> 10	> 10	> 10	–	> 10	> 10
COc1cc2c(cc1OC)C1C(O)C(OC)C=C3CC[N+](C)(C2)C31 (configuration not stated)	> 100	> 100	> 100	> 100	> 100	> 100
CCOC(=O)c1cc(C2CCN(CC(C)CC)C2=S)c(C(=O)/C=C(/C)N)[nH]1 (configuration not stated)	> 50	> 50	–	> 50	> 50	> 50
CC1(C)CCCCCCCCCC(C)(CCCO)C1=O (configuration not stated)	27.4	31.8	29	33.1	41.9	37.9
COc1cc(C)cc2c1C(=O)C(Br)=CC2=O	14.1	40.6	7.71	34.5	5.19	71.5
COC(=O)C(/C(=N/N)C(=O)Nc1cc(Cl)c(Cl)cc1Cl)c1nc2ccc(Cl)cc2[nH]c1=O (configuration not stated)	> 100	> 100	> 100	> 100	–	> 100
COc1ccc(Nc2nc(N)c(C(=O)c3ccc(OC)cc3)s2)cc1	–	> 100	> 100	> 64.7	–	–
COC(=O)/C(C#N)=C1\NC(=O)CC(c2ccccc2)C1C#N (configuration not stated)	> 100	> 100	> 100	–	> 100	> 100
O=c1cc(NCC2CCCCC2)[nH]c(=O)[nH]1	> 100	> 100	> 100	> 100	–	> 100
Cc1ccc(S(=O)(=O)[N-]C2C(=O)c3ccccc3C(=O)C2[n+]2cccc(C(N)=O)c2)cc1 (configuration not stated)	> 100	> 100	> 100	–	> 100	> 100
COc1cc(/C=C2/SC(c3ccccc3)N(c3ccc(Cl)cc3)C2=O)cc(OC)c1OC (configuration not stated)	> 63.3	> 100	> 100	> 100	> 100	> 100
CC(=N/NC(=S)Nc1c(C)n(C)n(-c2ccccc2)c1=O)/C(C)=N\NC(=S)Nc1c(C)n(C)n(-c2ccccc2)c1=O	> 100	> 100	> 100	> 100	> 100	> 100
c1ccc([C@@H]2N[C@@]3(CO[Si](c4ccccc4)(c4ccccc4)c4ccccc4)CC[C@H]4CN[C@@H]2[C@H]43)cc1	17.4	10.4	29.3	30.4	> 100	36.3
CC1(C)[C@@H]2C[C@H]1C(Cc1ccc(C[C@H]3c4cc(-c5ccccn5)ncc4[C@H]4C[C@@H]3C4(C)C)cc1)c1cc(-c3ccccn3)ncc12 (some centres not stated)	> 100	> 100	–	7.99	–	> 100
CS(=O)(=O)c1[nH]nc2[nH]c(=O)[nH]c(=O)c12	> 10	> 10	> 10	> 10	> 10	> 10
O=c1n(-c2ccccc2)c(=O)n2n1C1CCC2CC1	> 100	> 100	–	> 100	> 100	> 100
Cc1cc(NC(=O)C(=O)Cc2cnc3ccccc3n2)c(S(=O)(=O)O)cc1Cl	> 100	> 100	> 100	> 100	> 100	> 100
CC(=O)NCC1(c2ccccc2)CCN(CC2COc3ccccc3O2)CC1 (configuration not stated)	> 100	> 100	> 100	> 100	> 100	> 100
COC(C/C(=C/CO[Si](C(C)C)(C(C)C)C(C)C)C(=O)Nc1ccccc1I)OC	> 100	71.1	> 100	> 100	> 100	> 100
CCOC(=O)c1nnsc1NC(=O)Nc1ccc(Cl)cc1	> 100	> 100	51.2	–	> 100	> 100
CC1=CCC[C@@](C)(O)[C@@H]2C[C@H]3C(CSc4ccccc4)C(=O)O[C@H]3[C@@H](O2)[C@H](C)CCC1 (some centres not stated)	26.9	67.9	45	45	> 100	56.4
CC(C)C[C@H](NC(=O)CCc1ccccc1)B(O)O	24.7	38.1	> 100	14	11.4	29.6
Cn1c2ccccc2c(=O)c2c(O)cc3c(c21)C=CC1(CCCC1)O3	> 100	> 100	> 100	> 100	> 100	> 100
CO[C@@](c1ccccc1)(c1nc(C#N)c(N)o1)C(F)(F)F	> 100	> 100	> 100	> 100	> 100	–
